Common to all, as to format: cell-based, Influenza A virus A/California/04/2009 (H1N1)
Assay [1] deals with full-length H1 HA I463V (Influenza A virus, UniProt C3W5S1, I477V).
Assay [2] concerns the target full-length H1 HA I375F (Influenza A virus, UniProt C3W5S1, I389F).
The target in assay [3] is full length, membrane-bound H1 HA (Influenza A virus, UniProt C3W5S1).

Molecules are shown by their SMILES. “Also recorded” adds a separate entry of the source. Positions of bridges follow the written chain, without caps; N, C: chain ends. Non-standard residues stand in square brackets, D forms with d. Residues, ends and D or L forms follow the SMILES beside them.

Consider `CC(C)C[C@@H]1NC(=O)[C@H](C(C)C)NC(=O)[C@@H](Cc2ccc(O)cc2)NC(=O)CSC[C@@H](C(=O)NCC(N)=O)NC(=O)[C@H](C(C)C)NC(=O)[C@H](Cc2c[nH]c3ccccc23)NC(=O)[C@H](Cc2c[nH]cn2)NC(=O)[C@H]([C@@H](C)O)NC(=O)[C@H](C)NC(=O)[C@H](CC(C)C)NC(=O)[C@H]([C@@H](C)O)NC(=O)CNC(=O)[C@H](Cc2c[nH]cn2)NC(=O)[C@H](CC(=O)O)NC(=O)[C@H](Cc2c[nH]c3ccccc23)NC(=O)[C@H](CCCNC(=N)N)NC(=O)[C@H](Cc2ccccc2)NC1=O` [S5] ({CH2CO}-[dY]VLFRWDHGTLATHWVCG-NH2; thioether N-17), for which the “Binding of biotinylated S5 to cell-surface H1” value in assay [1] is “not by the I463V substitution”; in assay [2], “hinders binding; also recorded: affected by the I375F substitution”. The “Competition with mAb Fi6 staining” value in assay [3] is “strongly decreased the staining; also recorded: competed with the binding of mAb Fi6”.

The values are drawn from article PMC9486808 (ACS Chemical Biology, 2022).
